Assays:
ERβ = experiment: Western blot of ERβ protein in inguinal subcutaneous adipose tissue of diet-induced obese WT and ERβDBDKO mice; format: in vivo; settings: daily injections of CL for two weeks; ERβDBDKO vs WT diet-induced obese mice; GxT p<0.001; FIG. 1B
Excerpt: (§1) Inguinal subcutaneous adipose tissue was harvested from diet-induced obese male and female wild-type (WT) and estrogen receptor beta (ERβ) DNA-binding domain (DBD) knock-out (ERβDBDKO) mice that were given daily injections of CL316,243 (CL), a beta3 adrenergic receptor (B3AR) ligand, for two weeks. ERβDBDKO mice express a mutated form of ERβ that lacks genomic activity by genetic ablation of the DBD, however still retain non-classical (i.e., non-genomic) signaling through ERβ. Protein was then isolated from the adipose tissue using Thermo Scientific™ RIPA lysis and extraction buffer, quantified using BCA method, then 10 ug was separated on a 4-20% SDS-PAGE gel followed by transfer to polyvinylidene difluoride membranes using BioRad Trans-Turbo Blot system. […] Images were captured on a ChemiDoc Imaging System (BioRad, Hercules, CA), band intensity was quantified using ImageLab software (BioRad), then ERβ and UCP1 protein expression was quantified relative to beta actin.
(§2) FIG. 1A is a Western blot showing the levels of ERβ and UPC1 in WT and ERβDBDKO (“KO”) mice, in the presence and absence of CL316243 (“CL”). The blot in FIG. 1A was scanned to quantify the band intensity, and the data used to graph the relative protein fold change for ERβ (FIG. 1B) and UCP-1 (FIG. 1C).

UCP1 [1] = experiment: Western blot of UCP1 protein in inguinal subcutaneous adipose tissue of diet-induced obese WT and ERβDBDKO mice; format: in vivo; settings: daily injections of CL for two weeks; ERβDBDKO vs WT diet-induced obese mice; GxT p=0.017; FIG. 1C
Excerpt: as §1, §2

UCP1 [2] = experiment: ucp1 mRNA induction in primary adipocytes by qRT-PCR; format: cell-based; settings: primary adipocytes from male C57BL6J mice; 1 uM CL with 1 uM PHTPP or 10 nM DPN; 24 hours; compared to CL alone; FIG. 4
Procedure: To test the hypothesis in vitro, that inhibition of genomic activity of ERβ would enhance the effectiveness of the […], CL316,243 (CL) to induce expression of the mitochondrial UCP1, primary adipocytes were treated with the following: (a) CL, (b) diarylpropionitrile (DPN) (i.e., ligand known to promote classical genomic functions of ERβ), (c) 4-(2-phenyl-5,7-bis(trifluoromethyl)pyrazolo[1,5-a]pyrimidin-3-yl)phenol (PHTPP) (i.e., ligand known to suppress classical genomic functions of ERβ), (d) CL+DPN, and (e) CL+PHTPP. Briefly, perigonadal and subcutaneous WAT was harvested from male C57BL6J mice, digested in collagenase to isolate stromal vascular cells then cultured in Dulbecco's modified eagle medium/nutrient mixture F12 media supplemented with 10% fetal bovine serum, 1% GlutaMax, 0.1% gentamicin and 0.05% insulin at 37° C. and 5% CO2. Adipocyte differentiation was induced by supplementing media with 0.5 mM 3-isobutyl-1-methylxanithin, 1 uM dexamethasone, and […] for 48 hours. 14 days post induction, primary adipocytes were treated with either 1 uM CL, 10 nM DPN, 1 uM PHTPP or a combination of ligands as outlined above. After 24 hours treatment, ucp1 mRNA induction was measured using qRT-PCR. […] Ucp1 mRNA expression is expressed as 2^ΔCT where ΔCT=housekeeping CT−Ucp1 CT and presented as fold difference relative to control (CTRL). […]

[3] = administration of mirabegron; cited from earlier work
white adipose tissue = settings: obese human individuals; cited from earlier work

For `C[C@H](Cc1ccc2c(c1)OC(C(=O)[O-])(C(=O)[O-])O2)NC[C@H](O)c1cccc(Cl)c1.[Na+].[Na+]` [CL], the “ERβ protein content in WAT (relative to beta actin)” value (ERβ) was “increases ERβ protein content in WAT to a greater level in ERβDBDKO mice compared to WT” and the “UCP1 protein content (relative to beta actin)” value (UCP1 [1]) was “increases UCP1 protein content in ERβDBDKO mice more so than in WT mice”.
For `Oc1ccc(-c2c(-c3ccccc3)nn3c(C(F)(F)F)cc(C(F)(F)F)nc23)cc1` [PHTPP, 4-(2-phenyl-5,7-bis(trifluoromethyl)pyrazolo[1,5-a]pyrimidin-3-yl)phenol], the “Ucp1 mRNA expression, fold difference relative to control” value (UCP1 [2]) was “increases the CL-mediated induction of UCP1”.
For `Nc1nc(CC(=O)Nc2ccc(CCNC[C@H](O)c3ccccc3)cc2)cs1` [mirabegron], the side effects [3] is given as “may result in hypertension, nasopharyngitis, tachycardia, headaches, urinary tract infections, upper respiratory tract infections, constipation, abdominal pain, and fatigue” and the “white adipose tissue dysfunction” value (white adipose tissue) is given as “reduced white adipose tissue dysfunction”.

Source: patent US12642790B2, “Drug combination for treating obesity” (The Curators of the University of Missouri, priority 2022, dated 2026)
